Test: Blood levels in mice after oral or subcutaneous administration, assayed by biological β-lactamase inhibition-zone technique
Type: in vivo
Conditions: for concentration at 0.5 h: 30 mins after administration; for concentration at 0.75 h: 45 mins after administration; for concentration at 1 h: 60 mins after administration; for concentration at 1.5 h: 90 mins after administration; for concentration at 2 h: 120 mins after administration; for AUC: mice
Description: The compound of Example 4 was administered either orally (by gastric lavage) or subcutaneously as a solution to groups of mice. At intervals after administration, 5 mice which had received the compound subcutaneously and 10 mice which had received the compound orally were sacrificed, and blood collected from the axillary region. The blood was assayed for content of compound 4 using a biological β-lactamase inhibition-zone assay technique. The mean values (+ standard deviation - SD) are tabulated below.

[1] = mouse, blood, sc, subcutaneous administration, 10 mg/kg, average for 5 mice
[2] = mouse, blood, oral administration, 20 mg/kg, average for 10 mice

levels in the blood of mice (administered by either an oral or parenteral route, result in words): high and prolonged levels | concentration at 10 min (mouse, blood, sc, subcutaneous administration, 10 mg/kg, 10 mins after administration, average for 5 mice): 22800 ng/mL | concentration at 20 min (mouse, blood, sc, subcutaneous administration, 10 mg/kg, 20 mins after administration, average for 5 mice): 17300 ng/mL | concentration at 0.5 h [1]: 13300 ng/mL | concentration at 0.75 h [1]: 7700 ng/mL | concentration at 1 h [1]: 5200 ng/mL | concentration at 1.5 h [1]: 2700 ng/mL | concentration at 2 h [1]: 1800 ng/mL | concentration at 0.25 h (mouse, blood, oral administration, 20 mg/kg, 15 mins after administration, average for 10 mice): 16600 ng/mL | concentration at 0.5 h [2]: 10500 ng/mL | concentration at 0.75 h [2]: 7940 ng/mL | concentration at 1 h [2]: 7420 ng/mL | concentration at 1.5 h [2]: 3910 ng/mL | concentration at 2 h [2]: 3200 ng/mL | AUC (mouse, sc, subcutaneous administration, 10 mg/kg, blood): 15100 ng·h/mL | AUC (mouse, oral administration, 20 mg/kg, blood): 14300 ng·h/mL
SMILES: O=C(O)C1C(=CCOCCCl)OC2CC(=O)N21 (stereo not shown) [Example 4, Lithium 9-0-(2-chloroethyl)clavulanate]
